Results on one molecule are retold here after patent US20110190249A1, “THERAPEUTIC METHODS AND USES OF SAPOGENINS AND THEIR DERIVATIVES” (PHYTOPHARM PLC, priority 2002, published 2011).

In one assay the test system is BDNF. Put plainly: BDNF levels in aged rats. It counts as in vivo, rat. Conditions: aged rats treated 3 months; aged untreated 1.205±0.219, young 1.647±0.277. The method, then: Aged Sprague-Dawley rats aged were divided into different groups, one control and groups treated for 2-3 months with either sarsasapogenin, episarsasapogenin cathylate or smilagenin (18 mg kg^−1 day^−1, n=10). A control group (n=14) of untreated young rats was also included in the study. The daily dose of drug was mixed in a minimum amount of food and was administered every morning separately to each rat.

Assay [1] has as its system rat mesencephalic dopaminergic neurones. Kind of assay: Pre-treatment of dopaminergic neurones before MPP+ exposure (neuronal survival). It counts as cell-based. The settings on record: pre-treatment 30 nM; MPP+ 2 μM; MPP+ alone 55 ± 3. The text has this: Smilagenin and sarsasapogenin prevent the neurodegeneration caused by exposure to the neurotoxin, 1-methyl-4-phenylpyridinium (MPP^+) in rat mesencephalic dopaminergic neurones; a model of Parkinson's disease in vitro.
Glial cell line-derived neurotrophic factor (GDNF) and brain-derived neurotrophic factor (BDNF), molecules that are involved in neuronal growth, were used as positive controls.

Another assay deals with SOD-1 transgenic mice. Kind of assay: Survival and behaviour of SOD-1 mice (ALS model). It counts as in vivo. The settings on record: SOD mouse. The text has this:
Amyotrophic lateral sclerosis (ALS) is a progressive fatal neurodegenerative disorder that causes motor neurone degeneration, […], paralysis and death. The cause of this disease is heterogeneous: mutations in the Cu/Zn superoxide dismutase (SOD-1) gene is responsible for some forms of human ALS. Animal models of this disease include the SOD-1 transgenic mice over-expressing SOD-1 gene and the progressive motor neuropathy (pmn, a model of Charcot-Marie-Tooth) mice.

Assay [2] concerns rat primary cortical neurones. Kind of assay: Neurite outgrowth in rat primary cortical neurones. It counts as cell-based. Conditions: for Number of neurones displaying neurites, Mean ± s.e.m (%): control 47 ± 2; for Neurite length measured using optical micrometry, Mean ± s.e.m (%): control 100 ± 4. From the text:
Neurodegenerative disorders are characterised by a progressive loss of neurones and degradation of neuronal processes (neurites). Agents that induce neurite outgrowth may promote the formation of new connections between neurones and ameliorate the symptoms of neurodegenerative conditions (Katzman et al, Faseb J., 5, 278-286, 1991).

In the case of `C[C@@H]1CC[C@@]2(OC1)O[C@H]1C[C@H]3[C@@H]4CC[C@@H]5C[C@@H](O)CC[C@]5(C)[C@H]4CC[C@]3(C)[C@H]1[C@@H]2C` [smilagenin], in the assay with BDNF, the BDNF levels came out at 1.342±0.07 ng/g tissue. The “Dopaminergic neurones after MPP+ exposure (survival), Mean ± s.e.m (%)” value in assay [1] was determined as 98 ± 4%. Also, the Behavioural deficits entry in the assay with SOD-1 transgenic mice (oral administration) was “improve the behavioural deficits”. Besides, the “Lifespan (survival)” value with SOD-1 transgenic mice (oral administration (FIG. 5)) is listed as “increase the lifespan”. In addition, the figures for the “Number of neurones displaying neurites, Mean ± s.e.m (%)” value in assay [2] (0.3 pM), in assay [2] (3 pM) and in assay [2] (30 pM) were 63 ± 2%, 63 ± 2% and 66 ± 2%, respectively. Also, the results for the “Neurite length measured using optical micrometry, Mean ± s.e.m (%)” value in assay [2] (0.3 pM), in assay [2] (3 pM) and in assay [2] (30 pM) were 159 ± 5%, 190 ± 8% and 204 ± 6%, respectively.
